Experimental findings from patent US8039474B2, “2,3,4,9-tetrahydro-1H-carbazole derivatives as CRTH2 receptor antagonists” (Actelion Pharmaceutical Ltd., priority 2004, dated 2011) are described below.

The target in the first assay is T1, hCRTH2 receptor (Homo sapiens, UniProt Q9Y5Y4).
T1 construct: expressed in transfected cells
T1 sequence (Q9Y5Y4 1-395): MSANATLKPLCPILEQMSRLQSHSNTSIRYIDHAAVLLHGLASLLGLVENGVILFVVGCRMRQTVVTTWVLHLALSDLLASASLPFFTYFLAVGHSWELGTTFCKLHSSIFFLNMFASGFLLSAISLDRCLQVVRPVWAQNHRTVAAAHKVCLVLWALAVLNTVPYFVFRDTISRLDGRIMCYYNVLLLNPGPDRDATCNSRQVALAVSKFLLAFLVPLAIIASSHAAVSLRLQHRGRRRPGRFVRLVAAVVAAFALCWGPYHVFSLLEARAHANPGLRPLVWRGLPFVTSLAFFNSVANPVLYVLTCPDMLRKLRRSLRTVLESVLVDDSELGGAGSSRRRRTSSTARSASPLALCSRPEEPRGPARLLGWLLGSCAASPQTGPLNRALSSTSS
The assay is described as follows: CRTH2 membranes radioligand binding assay ({3H}-PGD2). Particulars: {3H}-PGD2 2.5 nM; membranes of HEK 293 cells expressing recombinant hCRTH2; read-out: hCRTH2 BDG IC50. The procedure: Cells are detached from culture plates in 5 ml buffer A (5 mM Tris, 1 mM MgCl2×6 H2O, 0.1 mM PMSF, 0.1 mM phenanthroline) per plate using a police rubber and transferred into centrifugation tubes and frozen at −80° C. After thawing, the cells are centrifuged at 500 g for 5 min and then resuspended in buffer A. Cells are then fragmented by homogenization with a Polytron homogenizer for 30 s. The membrane fragments are centrifuged at 3000 g for 40 min and resuspended in membranes in buffer B (50 mM Tris, 25 mM MgCl2, 250 mM saccharose, pH 7.4) and aliquots are stored frozen.
Binding assay is performed in a total volume of 250 μl. […] For unspecific binding, PGD2 is added to the reaction mixture at 1 μM final concentration. This binding assay mix is incubated at rt for 90 min and then filtered through a GF/C filter plate. The filter is washed three times with ice cold binding buffer. Then, 40 μl per well Microscint-40 (Packard) are added and the bound radioactivity is quantified by means of Topcount (Packard).
As for `O=C(O)Cn1c2c(c3ccccc31)CC(C(=O)N1CCc3ccccc31)CC2` (racemic) [Example A-39, (±)-[3-(2,3-Dihydro-indole-1-carbonyl)-1,2,3,4-tetrahydro-carbazol-9-yl]-acetic acid], the half-inhibitory concentration (IC50) (as a rule, the concentration needed to halve the response being measured) was 2 nM.
For `CN(C(=O)C1(C)CCc2c(c3ccccc3n2CC(=O)O)C1)c1ccccc1` (racemic) [Example B-01, (±)-[3-Methyl-3-(methyl-phenyl-carbamoyl)-1,2,3,4-tetrahydro-carbazol-9-yl]-acetic acid], the IC50 was determined as 3 nM.
Still for that read-out and setting: in the case of `CC1(C(=O)N(Cc2ccccc2)c2ccccc2)CCc2c(c3ccccc3n2CC(=O)O)C1` (racemic) [Example B-04, (±)-[3-(Benzyl-phenyl-carbamoyl)-3-methyl-1,2,3,4-tetrahydro-carbazol-9-yl]-acetic acid] it was 3 nM; in that of `CC1(C(=O)N(Cc2ccsc2)c2ccccc2)CCc2c(c3ccccc3n2CC(=O)O)C1` (racemic) [Example B-07, (±)-[3-Methyl-3-(phenyl-thiophen-3-ylmethyl-carbamoyl)-1,2,3,4-tetrahydro-carbazol-9-yl]-acetic acid], 2 nM; in that of `CN(C(=O)C1(C)CCc2c(c3ccccc3n2CC(=O)O)C1)c1cccc(Cl)c1` (racemic) [Example B-10, (±)-{3-[(3-Chloro-phenyl)-methyl-carbamoyl]-3-methyl-1,2,3,4-tetrahydro-carbazol-9-yl}-acetic acid], 1 nM.
`CCCC1(C(=O)Nc2cccc(F)c2)CCc2c(c3ccccc3n2CC(=O)O)C1` (racemic) [Example B-32, (±)-[3-(3-Fluoro-phenylcarbamoyl)-3-propyl-1,2,3,4-tetrahydro-carbazol-9-yl]-acetic acid]: the IC50 worked out at 22 nM.
For `CC1(C(=O)NCc2cc(F)cc(F)c2)CCc2c(c3ccccc3n2CC(=O)O)C1` (racemic) [Example B-68, (±)-[3-(3,5-Difluoro-benzylcarbamoyl)-3-methyl-1,2,3,4-tetrahydro-carbazol-9-yl]-acetic acid], the IC50 is 19 nM.
`CC(C)N(Cc1ccccc1)C(=O)C1CCc2c(c3cc(F)ccc3n2CC(=O)O)C1` (single isomer, unassigned; (+)) [(+)-[3-(Benzyl-isopropyl-carbamoyl)-6-fluoro-1,2,3,4-tetrahydro-carbazol-9-yl]-acetic acid]: the 50% inhibitory concentration (IC50) is 3 nM.
On the same count and under the same terms, in the case of `CC(C)N(Cc1ccccc1)C(=O)C1CCc2c(c3cc(F)ccc3n2CC(=O)O)C1` (single isomer, unassigned; (-)) [(−)-[3-(Benzyl-isopropyl-carbamoyl)-6-fluoro-1,2,3,4-tetrahydro-carbazol-9-yl]-acetic acid] it was 67 nM.

The target of the next assay is T1, hCRTH2 receptor. Briefly: Intracellular calcium mobilization assay (FLIPR), PGD2 challenge. The assay is classed as cell-based. Particulars: HEK-293 cells stably expressing hCRTH2; 10 nM prostaglandin D2 as agonist. The procedure:
A functional assay with cells expressing the human CRTH2 receptor may be used to detect changes in the levels of intracellular calcium concentration following compound treatment. After addition of the compound the cells are challenged with PGD2. In a Fluorescent Imaging Plate Reader (FLIPR™, Molecular Devices, Sunnyvale, Calif.) fluorescence emission is recorded during both additions, emission peak values above base level after PGD2 addition were exported, normalized to low controls (no PGD2) and high controls (no active compound). The relative values of the remaining activity were used to determine IC50 values by curve fitting the data to a single site to a four-parameter logistic sigmoid dose response curve of the equation (A+((B−A)/(1+((C/x)^D)))).
Cells (HEK-293), stably expressing the hCRTH2 receptor under the control of the cytomegalovirus promotor from a single insertion of the expression vector pcDNA5 (Invitrogen), are grown to confluency in DMEM (low glucose, Gibco) medium supplemented with 10% fetal calf serum (both Bioconcept, Switzerland) under standard mammalian cell culture conditions (37° C. in a humidified atmosphere of 5% CO2). Cells are detached from culture dishes using a dissociation buffer (0.02% EDTA in PBS, Gibco) for 1 min, and collected by centrifugation at 200 g at rt for 5 min in assay buffer (equal parts of Hank's BSS (HBSS, Bioconcept) and DMEM (low glucose, without phenol red, Gibco)). After incubation for 45 min (37° C. and 5% CO2) in the presence of 1 μM Fluo-4 and 0.04% Pluronic F-127 (both Molecular Probes), 20 mM HEPES (Gibco) in assay buffer, the cells are washed with and resuspended in assay buffer, then seeded onto 384-well FLIPR assay plates (Greiner) at 50,000 cells in 66 μl per well, and sedimented by centrifugation.
Stock solutions of test compounds are made up at a concentration of 10 mM in DMSO, and serially diluted in assay buffer to concentrations required for inhibition dose response curves. Prostaglandin D2 (Biomol, Plymouth Meeting, Pa.) is used as an agonist.
A FLIPR384 instrument (Molecular Devices) is operated according to the manufacturer's standard instructions, adding 4 μl of test compound dissolved at 10 mM in DMSO and diluted prior to the experiment in assay buffer to obtain the desired final concentration. 10 μl of 80 nM prostaglandin D2 (Biomol, Plymouth Meeting, Pa.) in assay buffer, supplemented with 0.8% bovine serum albumin (fatty acid content<0.02%, Sigma), is then added to obtain a final concentration of 10 nM and 0.1%, respectively. Changes in fluorescence are monitored before and after the addition of test compounds at λex=488 nm and λem=540 nm. Emission peak values above base level after prostaglandin D2 addition are exported after base line subtraction. Values are normalized to high-level control (no test compound added) after subtraction of base line value (no prostaglandin D2 added). The program XL1fit 3.0 (IDBS) is used to fit the data to a single site dose response curve of the equation (A+((B−A)/(1+((C/x)^D)))) and to calculate the IC50 values.
(Calcium assays in cells follow changes in intracellular calcium, usually with a dye or a luminescent sensor.)
Regarding `CN(C(=O)C1CCc2c(c3cc([N+](=O)[O-])ccc3n2CC(=O)O)C1)c1ccccc1` (racemic) [(±)-[3-(Methyl-phenyl-carbamoyl)-6-nitro-1,2,3,4-tetrahydro-carbazol-9-yl]-acetic acid], the half-inhibitory concentration (IC50) turned out to be 11 nM.
The same measure, in the same setting: in the case of `CN(C(=O)C1CCc2c(c3ccccc3n2CC(=O)O)C1)c1ccccc1C(F)(F)F` (racemic) [Example A-37, (±)-{3-[Methyl-(2-trifluoromethyl-phenyl)-carbamoyl]-1,2,3,4-tetrahydro-carbazol-9-yl}-acetic acid] it was 45 nM.
Consider `CN(C(=O)C1CCc2c(c3ccccc3n2CC(=O)O)C1)C(c1ccccc1)c1ccccc1` (racemic) [Example A-42, (±)-[3-(Benzhydryl-methyl-carbamoyl)-1,2,3,4-tetrahydro-carbazol-9-yl]-acetic acid], for which the concentration for half-maximal inhibition (IC50) was determined as 17 nM.
As for `CN(C(=O)C1(C)CCc2c(c3ccccc3n2CC(=O)O)C1)c1ccccc1` (racemic) [Example B-01, (±)-[3-Methyl-3-(methyl-phenyl-carbamoyl)-1,2,3,4-tetrahydro-carbazol-9-yl]-acetic acid], the IC50 is 13 nM.
Take `CN(C(=O)C1(C)CCc2c(c3ccccc3n2CC(=O)O)C1)c1cccc(Cl)c1` (racemic) [Example B-10, (±)-{3-[(3-Chloro-phenyl)-methyl-carbamoyl]-3-methyl-1,2,3,4-tetrahydro-carbazol-9-yl}-acetic acid]: the half-maximal inhibitory concentration (IC50) was found to be 20 nM.
Turning to `CCC1(C(=O)N2CCc3ccccc32)CCc2c(c3ccccc3n2CC(=O)O)C1` (racemic) [Example B-22, (±)-[3-(2,3-Dihydro-indole-1-carbonyl)-3-ethyl-1,2,3,4-tetrahydro-carbazol-9-yl]-acetic acid], the IC50 amounted to 67 nM.
Still for that read-out and setting: in the case of `CC1(C(=O)N(CCC#N)Cc2ccccc2)CCc2c(c3ccccc3n2CC(=O)O)C1` (racemic) [Example B-56, (±)-{3-[Benzyl-(2-cyano-ethyl)-carbamoyl]-3-methyl-1,2,3,4-tetrahydro-carbazol-9-yl}-acetic acid] it was 36 nM; in that of `O=C(O)Cn1c2c(c3cc(F)ccc31)CC(C(=O)N1CCc3ccccc31)CC2` (single isomer, unassigned; (+)) [(+)-[3-(2,3-Dihydro-indole-1-carbonyl)-6-fluoro-1,2,3,4-tetrahydro-carbazol-9-yl]-acetic acid], 28 nM; in that of `O=C(O)Cn1c2c(c3cc(F)ccc31)CC(C(=O)N1CCCCCCC1)CC2` (single isomer, unassigned; (+)) [(+)-[3-(Azocane-1-carbonyl)-6-fluoro-1,2,3,4-tetrahydro-carbazol-9-yl]-acetic acid], 46 nM.
On the same count and under the same terms, with `O=C(O)Cn1c2c(c3cc(F)ccc31)CC(C(=O)N1CCN(c3ccc(F)cc3)CC1)CC2` (single isomer, unassigned; (-)) [(−)-{6-Fluoro-3-[4-(4-fluoro-phenyl)-piperazine-1-carbonyl]-1,2,3,4-tetrahydro-carbazol-9-yl}-acetic acid] the figure was 599 nM.
